Numbers after ± are expanded uncertainties.
Experiments:
[1] = DSC
[2] = Molar enthalpy of transition or fusion; settings: Crystal 1; DSC

Q: Which Triple point temperature ([1]; Crystal 1) does the source give for `CC[NH3+].O=[N+]([O-])[O-]` [ethylammonium nitrate] here?
A: The Triple point temperature was 285.15 ± 6 K.

Q: And the Glass transition temperature ([1]; Glass)?
A: Its Glass transition temperature is -41.00 ± 6 °C.

Q: What about the “Molar enthalpy of transition or fusion” value [2] of the same compound?
A: The value was 13.2 ± 0.65 kJ/mol.
